Columns and labels:
[1] = system: intracerebral amyloid (aggregated Aβ1-42); experiment: Confirmation of imaging of amyloid in brain (autoradiogram of brain slice, amyloid injected into amygdaloid nucleus); assay type: in vivo, male Wistar rat; conditions: rat, tail vein injection, brain removed 60 minutes after injection
Procedure: (§1) The following experiment was carried out in order to examine whether amyloid in brain can be imaged by the compound of the present invention.
(§2) (1) Aβ1-42 (Wako) was dissolved in phosphate buffer (pH 7.4) and shaken at 37° C. for 72 hours, to obtain a 1 mg/mL suspension of aggregated Aβ (hereinafter referred to as amyloid suspension in this Example).
(§3) (2) Under thiopental anesthesia, […] of the amyloid suspension was injected into an amygdaloid nucleus on one side of a male Wistar rat (7-week old). As a control, 2.5 μL of a phosphate buffered physiological saline solution (pH 7.4) was injected into an amygdaloid nucleus on the other side of the rat. The rats were examined 1 day after the injection of the amyloid suspension and the phosphate buffered physiological saline solution (pH 7.4).
(§4) This sample solution was injected under thiopental anesthesia into the rat through the tail vein (dosage: 0.5 mL, dosed radioactivity: 16 MBq equivalent).
(§5) (4) Brain was removed 60 minutes after the injection to prepare a brain slice of 10 μm in thickness with a microtome (type: CM3050S, manufactured by LEICA). The brain slice was exposed to an imaging plate for 20 hours, and then image analysis was carried out by use of a Bio-imaging Analyzer (type: BAS-2500; manufactured by FUJIFILM Corporation).

[2] = molecular target: T1, intracerebral amyloid (aggregated Aβ1-42) (Homo sapiens, UniProt P05067); experiment: as above; assay type: in vivo, male Wistar rat; conditions: rat, tail vein injection, brain removed 60 minutes after injection
T1 construct: Aβ1-42 (Wako) was dissolved in phosphate buffer (pH 7.4); purchased Wako
Procedure: as §1, §2, §3, §4, §5

[3] = Partition coefficient based on the octanol extraction method (logPoctanol); conditions: octanol / 10 mmol/L phosphate buffer (pH 7.4)
[4] = Transferability into brain and clearance (radioactive accumulation in brain after intravenous injection); conditions: rats
Procedure: Using [^123I]-2-(4′-iodophenyl)-6-methoxyimidazo[1,2-a]pyridine and [^123I]-2-(4′-fluorophenyl)-6-iodoimidazo[1,2-a]pyridine, a time course change of radioactive accumulation in brain of male Wistar rats (7-week old) was measured.
The rats were sacrificed by bleeding from abdominal artery, and brains were removed and subjected to measurement of mass of brains (hereinafter referred to as A in this Example) and further subjected to measurement of radioactivity with a single channel analyzer (detector type: SP-20 manufactured by OHYO KOKEN KOGYO Co., Ltd.) 2, 5, 30 and 60 minutes after the injection. Also, radioactivity (hereinafter referred to as B in this Example) of the rest of the whole body was measured in the same manner as above.
The same procedures as above was conducted and subjected to the same procedures as above to calculate radioactive accumulation per unit weight of a brain (% ID/g) at the respective time points were calculated.
Three animals were used for Example 15, Example 16 and Comparative Example 2 at the respective time points.

[5] = molecular target: aggregated Aβ (amyloid) from Aβ1-42 (Homo sapiens, UniProt P05067)
From the text: Affinity of the present compounds with amyloid was examined by the following in vitro binding tests.

[6] = [^125I]-labeled compounds, normal mice, brain; cited from earlier work

Sequence of aggregated Aβ (amyloid) from Aβ1-42 (P05067 672-713): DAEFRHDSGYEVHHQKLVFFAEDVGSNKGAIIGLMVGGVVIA
T1 sequence (P05067 672-713): as above

**Q.** What does the source list for `COc1ccc(-c2cn3cc([123I])ccc3n2)cc1` [[^123I]-6-iodo-2-(4′-methoxyphenyl)imidazo[1,2-a]pyridine]?
**A.** accumulation of radioactivity in amygdaloid nucleus on the side to which the physiological saline solution was injected [1]: no significant accumulation of radioactivity; accumulation of radioactivity in amygdaloid nucleus on the side to which the amyloid suspension was injected [2]: marked accumulation of radioactivity; logPoctanol value [3]: 1.7; Radioactive accumulation per unit weight in brain ([4]; after 2 min.): 1.04 % ID/g; Radioactive accumulation per unit weight in brain ([4]; after 5 min.): 0.72 % ID/g; Radioactive accumulation per unit weight in brain ([4]; after 30 min.): 0.12 % ID/g; Radioactive accumulation per unit weight in brain ([4]; after 60 min.): 0.04 % ID/g

**Q.** For `CN(C)c1ccc(-c2cn3cc([123I])ccc3n2)cc1` [[^123I]-IMPY, reference compound], which logPoctanol value [3] is on record?
**A.** The logPoctanol value was 1.9.

**Q.** And the “Radioactive accumulation per unit weight in brain” value ([4]; after 2 min.)?
**A.** The value was 1.19 % ID/g.

**Q.** And the “Radioactive accumulation per unit weight in brain” value ([4]; after 5 min.)?
**A.** Its value is 0.97 % ID/g.

**Q.** And the “Radioactive accumulation per unit weight in brain” value ([4]; after 30 min.)?
**A.** The value was 0.23 % ID/g.

**Q.** What about the “Radioactive accumulation per unit weight in brain” value ([4]; after 60 min.) of the same compound?
**A.** The value was 0.09 % ID/g.

**Q.** Which results are given for `COc1ccc2nc(-c3ccc([125I])cc3)cn2c1` [[^125I]-2 (4′-iodophenyl)-6-methoxyimidazo[1,2-a]pyridine]?
**A.** radioactive count specifically attached to amyloid (A−B) versus concentration of amyloid ([5]; amyloid 25, 62.5, 250, 625 and 1000 nmol/L, 22° C., 3 hours, non-specific count B subtracted): increase proportionally to the concentration of amyloid; capability of binding to amyloid ([5]; conclusion from in vitro binding test): highly capable of binding to amyloid

**Q.** For `CN(C)c1ccc(/C=C/c2ccc(I)cc2)cc1` [m-I-SB, (E)-4-dimethylamino-4′-iodostilbene], which “clearance from normal tissues” value [6] is on record?
**A.** Its value is “insufficient in clearance from normal tissues”.

Source: patent publication US20100216994A1, “USE OF NOVEL COMPOUND HAVING AFFINITY FOR AMYLOID, AND PROCESS FOR PRODUCTION OF THE SAME” (NIHON MEDI-PHYSICS CO., LTD., priority 2007, published 2010)
